PMC4881748 (Journal of the American Chemical Society, 2016)

Assays:
BoNT/A LC = BoNT/A LC (Clostridium botulinum, UniProt P0DPI0); format: biochemical, C. botulinum
[1] = test system: BoNT/A SNAP-25 cleavage in hiPSC-derived neurons; format: cell-based, human
[2] = test system: BoNT/A SNAP-25 cleavage in hiPSC-derived neurons; format: cell-based, human; remark: listed apart in the source
BoNT/A = details: cited from earlier work

Sequence of BoNT/A LC (P0DPI0 2-448 limits assumed): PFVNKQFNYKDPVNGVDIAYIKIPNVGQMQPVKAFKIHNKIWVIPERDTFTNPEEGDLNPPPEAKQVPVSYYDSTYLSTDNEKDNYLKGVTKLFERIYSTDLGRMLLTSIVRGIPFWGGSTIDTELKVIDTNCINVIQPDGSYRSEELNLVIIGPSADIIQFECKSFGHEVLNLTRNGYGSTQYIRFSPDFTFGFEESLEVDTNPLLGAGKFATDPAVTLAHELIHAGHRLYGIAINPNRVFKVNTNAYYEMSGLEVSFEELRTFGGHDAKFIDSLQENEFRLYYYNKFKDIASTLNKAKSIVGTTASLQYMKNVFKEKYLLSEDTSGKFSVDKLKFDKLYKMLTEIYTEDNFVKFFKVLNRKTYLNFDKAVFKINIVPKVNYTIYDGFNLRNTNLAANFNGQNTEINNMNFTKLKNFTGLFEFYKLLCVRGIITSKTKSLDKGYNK

Molecule	Inhibition in the LC enzyme assay (BoNT/A LC)	Inhibition of SNAP-25 cleavage with delayed inhibitor addition [1]	EC50, SNAP-25 protection in cellular assay [2]	also measured
O=C1CCC(=O)N1O [N-hydroxysuccinimide (NHS), N-hydroxysuccinimide]	did not demonstrate any inhibition			
CC(=O)O[C@@H]1C[C@H](O)[C@@]23CO[C@@H](O)[C@]1(C)[C@@H]2C[C@@H](O)[C@]1(C)[C@@H]3C(=O)[C@H](OC(C)=O)[C@@]2(C)[C@H](c3ccoc3)C[C@H]3O[C@]321 [toosendanin]		initially effective		
O-benzyl N-hydroxysuccinimide [Compound 7]			Inactive	
N-acetyl-N-(benzyloxy)acetamide [Compound 10]			Inactive	
CO/C1=C\C(C)=C\[C@@H](C)[C@@H](O)[C@@H](C)C/C(C)=C/C=C/[C@H](OC)[C@@H]([C@@H](C)[C@@H](O)[C@H](C)[C@@]2(O)C[C@@H](O)[C@H](C)[C@@H](C(C)C)O2)OC1=O [bafilomycin A1]		initially effective		Activity when added 0.5 h after toxin exposure (BoNT/A): reduced activity; Activity when added simultaneously or immediately after BoNT/A (BoNT/A): presented activity
O=C(O)CCC(=O)NO [4-(hydroxyamino)-4-oxobutanoic acid]	did not demonstrate any inhibition			
